Source: patent publication US11339171B2, “MDM2 inhibitors” (Gan & Lee Pharmaceuticals, priority 2017, dated 2022)

Assays:
[1] = tested on: human osteosarcoma cell line SJSA-1; assay: Inhibition of proliferation of human osteosarcoma cell line SJSA-1 (DAPI staining, In Cell Analyzer); details: Homo sapiens, SJSA-1, 72 h, read-out: IC50 (nM), inhibitory activity on proliferation of human osteosarcoma cell line SJSA-1, SJSA-1, incubated 72 h
MDM2 = biological target: T1, MDM2 (Homo sapiens, UniProt Q00987); assay: Inhibition test of MDM2-P53 (GST-MDM2, Biotin-P53, Anti-GST-Tb, SA-XL665); assay type: binding
T1 construct: made in house
Method in brief: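 Compounds, serially diluted 5-fold (twelve concentrations), were shaken for 90 min at 25° C with a mix of GST-MDM2 (4 nM final), Biotin-P53, anti-GST-Tb and SA-XL665. Buffer: 1×PBS, 0.1% BSA, 5 mM DTT, 1 mM AEBSF; signal read on a microplate reader.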

T1 sequence (Q00987 whole entry): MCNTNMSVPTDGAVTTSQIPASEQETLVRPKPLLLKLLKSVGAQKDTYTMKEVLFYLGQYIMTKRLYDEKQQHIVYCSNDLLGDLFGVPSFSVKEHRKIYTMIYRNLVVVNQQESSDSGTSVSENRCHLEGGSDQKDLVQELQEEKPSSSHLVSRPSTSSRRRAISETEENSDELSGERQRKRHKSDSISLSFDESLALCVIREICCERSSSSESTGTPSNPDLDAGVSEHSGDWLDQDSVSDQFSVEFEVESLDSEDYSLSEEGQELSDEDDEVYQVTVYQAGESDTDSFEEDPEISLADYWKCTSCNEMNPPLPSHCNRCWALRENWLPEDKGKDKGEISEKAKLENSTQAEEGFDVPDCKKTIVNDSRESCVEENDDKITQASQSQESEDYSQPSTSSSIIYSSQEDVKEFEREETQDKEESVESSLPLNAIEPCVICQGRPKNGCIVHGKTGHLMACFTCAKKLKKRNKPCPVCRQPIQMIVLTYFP

Structure (SMILES) | IC50 [1] [nM] | IC50 (MDM2) [nM]
COc1ccc(C)cc1-c1nc2c(n1C(C)C)[C@]1(C(=O)Nc3cc(Cl)ccc31)N(c1cc(Cl)ccc1C)C2=O [Example R-62, (R)-6-chloro-5′-(5-chloro-2-methylphenyl)-3′-isopropyl-2′-(2-methoxy-5-methylphenyl)-3′H-spiro[dihydroindole-3,4′-pyrrolo[3,4-d]imidazole]-2,6′(5′H)-dione] | 4360 | 252
COc1cc(N)ccc1-c1nc2c(n1C(C)C)[C@]1(C(=O)Nc3cc(Cl)ccc31)N(c1cc(Cl)ccc1F)C2=O [Example R-66, (R)-2′-(4-amino-2-methoxyphenyl)-6-chloro-5′-(5-chloro-2-fluorophenyl)-3′-isopropyl-3′H-spiro[dihydroindole-3,4′-pyrrolo[3,4-d]imidazole]-2,6′(5′H)-dione] | 3860 | 85.9
COc1cc(N)ccc1-c1nc2c(n1C(C)C)[C@]1(C(=O)Nc3cc(Cl)ccc31)N(c1cc(F)cc(Cl)c1)C2=O [Example R-67, (R)-2′-(4-amino-2-methoxyphenyl)-6-chloro-5′-(3-chloro-5-fluorophenyl)-3′-isopropyl-3′H-spiro[dihydroindole-3,4′-pyrrolo[3,4-d]imidazole]-2,6′(5′H)-dione] | 8490 | 355
COc1cc(OC(C)C)ncc1-c1nc2c(n1C(C)C)[C@]1(C(=O)Nc3cc(Cl)ccc31)N(c1cc(Cl)ccc1C)C2=O [Example R-69, (R)-6-chloro-5′-(5-chloro-2-methylphenyl)-2′-(6-isopropoxy-4-methoxypyridin-3-yl)-3′-isopropyl-3′H-spiro[dihydroindole-3,4′-pyrrolo[3,4-d]imidazole]-2,6′(5′H)-dione] | 6580 | 636
COc1ccc(CC(=O)N(C)C)cc1-c1nc2c(n1C(C)C)[C@]1(C(=O)Nc3cc(Cl)ccc31)N(c1cc(Cl)ccc1C)C2=O [Example R-70, (R)-2-(3-(6-chloro-5′-(5-chloro-2-methylphenyl)-3′-isopropyl-2,6′-dioxo-5′,6′-dihydro-3′H-spiro[dihydroindole-3,4′-pyrrolo[3,4-d]imidazole]-2′-yl)-4-methoxyphenyl)-N,N-dimethylacetamide] | 4210 | 111
COc1ccc(N2C(=O)c3nc(-c4ccc(N)cc4OC)n(C(C)C)c3[C@]23C(=O)Nc2cc(Cl)ccc23)cc1Cl [Example R-71, (R)-2′-(4-amino-2-methoxyphenyl)-6-chloro-5′-(3-chloro-4-methoxyphenyl)-3′-isopropyl-3′H-spiro[dihydroindole-3,4′-pyrrolo[3,4-d]imidazole]-2,6′(5′H)-dione] | 7020 | 100
CCOc1cc(OC)c(-c2nc3c(n2C(C)C)[C@]2(C(=O)Nc4cc(Cl)ccc42)N(c2cc(Cl)ccc2C)C3=O)cn1 [Example R-72, (R)-6-chloro-5′-(5-chloro-2-methylphenyl)-2′-(6-ethoxy-4-methoxypyridin-3-yl)-3′-isopropyl-3′H-spiro[dihydroindole-3,4′-pyrrolo[3,4-d]imidazole]-2,6′(5′H)-dione] | 3480 | 214
COc1cc(N)c(C)cc1-c1nc2c(n1C(C)C)[C@]1(C(=O)Nc3cc(Cl)ccc31)N(c1cc(Cl)ccc1C)C2=O [Example R-74, (R)-2′-(4-amino-2-methoxy-5-methylphenyl)-6-chloro-5′-(5-chloro-2-methylphenyl)-3′-isopropyl-3′H-spiro[dihydroindole-3,4′-pyrrolo[3,4-d]imidazole]-2,6′(5′H)-dione] | 1840 | 93.4
COc1cc(N)c(F)cc1-c1nc2c(n1C(C)C)[C@]1(C(=O)Nc3cc(Cl)ccc31)N(c1cc(Cl)ccc1C)C2=O [Example R-75, (R)-2′-(4-amino-5-fluoro-2-methoxyphenyl)-6-chloro-5′-(5-chloro-2-methylphenyl)-3′-isopropyl-3′H-spiro[dihydroindole-3,4′-pyrrolo[3,4-d]imidazole]-2,6′(5′H)-dione] | 3040 | 122
COc1cc(N(C)C)c(F)cc1-c1nc2c(n1C(C)C)[C@]1(C(=O)Nc3cc(Cl)ccc31)N(c1cc(Cl)ccc1C)C2=O [Example R-78] | 1360 | 222
COc1cc(N(C)C)ccc1-c1nc2c(n1C(C)C)[C@]1(C(=O)Nc3cc(Cl)ccc31)N(c1cc(Cl)ccc1F)C2=O [Example R-81, (R)-6-chloro-5′-(5-chloro-2-fluorophenyl)-2′-(4-(dimethylamino)-2-methoxyphenyl)-3′-isopropyl-3′H-spiro[dihydroindole-3,4′-pyrrolo[3,4-d]imidazole]-2,6′(5′H)-dione] | 1600 | 53.3
COc1cc(OC)c(-c2nc3c(n2C(C)C)[C@]2(C(=O)Nc4cc(Cl)ccc42)N(c2cc(Cl)ccc2C)C3=O)cc1C [Example R-83, (R)-6-chloro-5′-(5-chloro-2-methylphenyl)-2′-(2,4-dimethoxy-5-methylphenyl)-3′-isopropyl-3′H-spiro[dihydroindole-3,4′-pyrrolo[3,4-d]imidazole]-2,6′(5′H)-dione] | 589 | 87.6
COc1cc(C(F)(F)F)ccc1-c1nc2c(n1C(C)C)[C@]1(C(=O)Nc3cc(Cl)ccc31)N(c1cc(Cl)ccc1C)C2=O [Example R-85, (R)-6-chloro-5′-(5-chloro-2-methylphenyl)-3′-isopropyl-2′-(2-methoxy-4-(trifluoromethyl)phenyl)-3′H-spiro[dihydroindole-3,4′-pyrrolo[3,4-d]imidazole]-2,6′(5′H)-dione] | 2190 | 494
COc1cc(OC(F)(F)F)ccc1-c1nc2c(n1C(C)C)[C@]1(C(=O)Nc3cc(Cl)ccc31)N(c1cc(Cl)ccc1C)C2=O [Example R-87, (R)-6-chloro-5′-(5-chloro-2-methylphenyl)-3′-isopropyl-2′-(2-methoxy-4-(trifluoromethoxy)phenyl)-3′H-spiro[dihydroindole-3,4′-pyrrolo[3,4-d]imidazole]-2,6′(5′H)-dione] | 7350 | 473
COc1cc(N(C)C)c(C)cc1-c1nc2c(n1C(C)C)[C@]1(C(=O)Nc3cc(Cl)ccc31)N(c1cc(Cl)ccc1C)C2=O [Example R-91, (R)-6-chloro-5′-(5-chloro-2-methylphenyl)-2′-(4-(dimethylamino)-2-methoxy-5-methylphenyl)-3′-isopropyl-3′H-spiro[dihydroindole-3,4′-pyrrolo[3,4-d]imidazole]-2,6′(5′H)-dione] | 993 | 461
COc1cc(OC)c(-c2nc3c(n2C(C)C)[C@]2(C(=O)Nc4cc(Cl)ccc42)N(c2cc(Cl)ccc2C)C3=O)cc1F [Example R-92, (R)-6-chloro-5′-(5-chloro-2-methylphenyl)-2′-(5-fluoro-2,4-dimethoxyphenyl)-3′-isopropyl-3′H-spiro[dihydroindole-3,4′-pyrrolo[3,4-d]imidazole]-2,6′(5′H)-dione] | 4880 | 378
CCOc1ncc(-c2nc3c(n2C(C)C)[C@]2(C(=O)Nc4cc(Cl)ccc42)N(c2cc(Cl)ccc2F)C3=O)c(OC)n1 [Example R-97, (R)-6-chloro-5′-(5-chloro-2-fluorophenyl)-2′-(2-ethoxy-4-methoxypyrimidin-5-yl)-3′-isopropyl-3′H-spiro[dihydroindole-3,4′-pyrrolo[3,4-d]imidazole]-2,6′(5′H)-dione] | 396 | 5.73
CCN(C)c1ccc(-c2nc3c(n2C(C)C)[C@]2(C(=O)Nc4cc(Cl)ccc42)N(c2cc(Cl)ccc2C)C3=O)c(OC)c1 [Example R-99, (R)-6-chloro-5′-(5-chloro-2-methylphenyl)-2′-(4-(ethyl(methyl)amino)-2-methoxyphenyl)-3′-isopropyl-3′H-spiro[dihydroindole-3,4′-pyrrolo[3,4-d]imidazole]-2,6′(5′H)-dione] | 1470 | 115
COc1cc(C2CC2)ncc1-c1nc2c(n1C(C)C)[C@]1(C(=O)Nc3cc(Cl)ccc31)N(c1cc(Cl)ccc1C)C2=O [Example R-103, (R)-6-chloro-5′-(5-chloro-2-methylphenyl)-2′-(6-cyclopropyl-4-methoxypyridin-3-yl)-3′-isopropyl-3′H-spiro[dihydroindole-3,4′-pyrrolo[3,4-d]imidazole]-2,6′(5′H)-dione] | 2430 | 181
COc1cc(N(C)C)ccc1-c1nc2c(n1C(C)C)[C@]1(C(=O)Nc3cc(Cl)ccc31)N(c1cccc(Cl)c1)C2=O [Example R-104, (R)-6-chloro-5′-(3-chlorophenyl)-2′-(4-(dimethylamino)-2-methoxyphenyl)-3′-isopropyl-3′H-spiro[dihydroindole-3,4′-pyrrolo[3,4-d]imidazole]-2,6′(5′H)-dione] | 6890 | 146
CCc1ccc(-c2nc3c(n2C(C)C)[C@]2(C(=O)Nc4cc(Cl)ccc42)N(c2cccc(Cl)c2)C3=O)c(OC)c1 [Example R-107, (R)-6-chloro-5′-(3-chlorophenyl)-2′-(4-ethyl-2-methoxyphenyl)-3′-isopropyl-3′H-spiro[dihydroindole-3,4′-pyrrolo[3,4-d]imidazole]-2,6′(5′H)-dione] | 3240 | 536
COc1cc(C)ccc1-c1nc2c(n1C(C)C)[C@]1(C(=O)Nc3cc(Cl)ccc31)N(c1cccc(Cl)c1)C2=O [Example R-109, (R)-6-chloro-5′-(3-chlorophenyl)-3′-isopropyl-2′-(2-methoxy-4-methylphenyl)-3′H-spiro[dihydroindole-3,4′-pyrrolo[3,4-d]imidazole]-2,6′(5′H)-dione] | 8200 | 381
COc1cc(N(C)C)ncc1-c1nc2c(n1C(C)C)[C@]1(C(=O)Nc3cc(Cl)ccc31)N(c1cc(Cl)ccc1C)C2=O [Example R-111, (R)-6-chloro-5′-(5-chloro-2-methylphenyl)-2′-(6-(dimethylamino)-4-methoxypyridin-3-yl)-3′-isopropyl-3′H-spiro[dihydroindole-3,4′-pyrrolo[3,4-d]imidazole]-2,6′ (5′H)-dione] | 561 | 110
